What was measured:
Type in all cases: in vivo
human DGAT2 [1] = experiment: Mice receiving hydrodynamic injection of human DGAT2 plasmid via the tail vein (Example 7); settings: 3 mg/kg subcutaneous single dose day 0; BALB/c mice, liver DGAT2 mRNA
Procedure: (§1) Animals: BALB/c mice, female, 6-7 weeks old.
(§2) DGAT2 plasmid DNA: pcDNA-DGAT2 plasmid, having a concentration of 2 µg/µL, diluted with physiological saline for later use.
The in-vivo experimental designs for the hydrodynamic injection of DGAT2 plasmid DNA via the tail vein, the administration, and the sample collection method were shown in the table below.
Treatment with compound: The day of administration to mice was defined as day 0, the day before it was day -1, the day after it was day 1, and so on. On day 0, the mice were injected subcutaneously with 5 mL/kg of the solvent or the test compound.
Hydrodynamic injection of DGAT2 plasmid DNA solution into mice via tail vein: On day 14, the plasmid DNA was prepared with normal saline before injection, and stored at 4°C until use. All mice were injected with the plasmid DNA solution in a volume of 8% of the body weight (injection volume (mL)= body weight of mice (g) x 8%) in 5 seconds via the tail vein, and the weight of plasmid injected into each mouse was 10 µg. […]
(§3) RNA in the liver was extracted with Trizol. The concentration of the RNA sample was determined by Nanodrop ONE (ultra-micro ultraviolet-visible spectrophotometer) and diluted to 400 ng/uL with water without RNase for reverse transcription. Quantitative PCR detection of DGAT2 and NEO gene expressions in mouse liver: […]

hDGAT2 = experiment: Mouse model receiving hydrodynamic injection of DGAT2 plasmid via tail vein (Example 5, liver mRNA qPCR); settings: for Average inhibition rate, % Day 1 after HDI (day 5 after administration): 3mpk subcutaneously day 0, HDI day 4, BALB/c mice; for Average inhibition rate, % Day 1 after HDI (day 15 after administration): 3mpk subcutaneously day 0, HDI day 14, BALB/c mice
Procedure: BALB/c mice, female, 6-7 weeks old.
pcDNA-DGAT2 plasmid, having a concentration of 2 µg/µL, diluted with physiological saline for later use.
The hydrodynamic injection scheme of DGAT2 plasmid DNA via tail vein, the administration and the sample collection method were as follows.
Treatment with compound: The day of administration to mice was defined as day 0, the day before it was day -1, the day after it was day 1, and so on. On day 0, the mice were injected subcutaneously with 5 mL/kg of the solvent or the test compound, at a dosage of 3mpk.
Hydrodynamic injection of DGAT2 plasmid DNA solution into mice via tail vein: On day 4 or 14, the plasmid DNA was prepared with normal saline before injection, and stored at 4°C until use. All mice were injected with the plasmid DNA solution in a volume of 8% of the body weight (injection volume (mL)= body weight of mice (g) x 8%) in 5 seconds via the tail vein, and the weight of plasmid injected into each mouse was 10 µg.
Endpoint of the experiment and collection of liver samples: On day 5 or 15, that is, 24 hrs after the hydrodynamic injection of DGAT2 plasmid via the tail vein, all mice were euthanized by CO2 inhalation. After euthanasia, blood samples were collected from the heart and liver samples were collected. 2 liver tissues of about 70 mg were immersed in RNAlater®, and incubated overnight at 4 °C. The supernatant was discarded and the remainder was transferred to a freezer at -80°C, for mRNA detection later.
RNA in the liver was extracted with Trizol. The method was briefly described as follows: 50-70 mg of liver tissue and 1.2 mL of Trizol were homogenized with Qiagen Tissue Lyser II at 26 Hz for 2 min and lyzed at room temperature for 5 min. 1 mL of the supernatant was taken, added to 200 uL of chloroform, vigorously shaken for 15 s, allowed to stand for 3 min, and centrifuged. The supernatant was collected, added with an equal volume of isopropanol, and stood overnight at -20°C for precipitation. The precipitate was washed twice with 70% , and dissolved in water without RNase. The concentration of the RNA sample was determined by Nanodrop ONE and diluted to 400 ng/uL with water without RNase for reverse transcription.
The experimental steps of reverse transcription could be made reference to the instruction of FastKing cDNA first strand synthesis kit (genome clean). Briefly, a gDNA removal mixture was prepared according to Table 6. The mixture (5 µL/sample) and 400 ng/µL RNA sample were added to a 96-well PCR reaction plate, incubated at 42°C for 3 min, and cooled on ice. A mixture for reverse transcription was prepared according to Table 7. The reverse transcription mixture (10 µL/sample) and the DNA removal product of the previous step were added to a 96-well PCR reaction plate, for reverse transcription. Reaction conditions: 42°C for 15 min; and 95°C for 3 min. The cDNA was stored at 4°C for further analysis. Table 6. Ingredients for gDNA-removal reaction
Reaction conditions: 95°C for 10 min; and 40 cycles of 95°C for 15 s, and 60°C for 1 min. Table 8. Ingredients for qPCR Reaction (DGAT2)
(§4) The expression of the target gene in each sample was analyzed by relative quantification using ΔΔCt method. In this method, the Ct difference (ΔCt) between the target gene (DGAT2) and the internal reference gene (Neo) was determined, and the ΔCt value of the sample treated with the compound was compared with that of the control group.
The formula is: ΔCt = average Ct value of target gene−average Ct value of reference gene. [formula] [formula]
Data analysis: The data are expressed as the average of each group of mouse samples ± standard error. Unless otherwise specified, n=4 or 5. Student's t test was used for statistical analysis. Table 10.1 Test for evaluating the in-vivo inhibitory activity of siRNA compounds on target gene DGAT2 in mice model receiving hDGAT2 HDI 5 days after administration

human DGAT2 [2] = experiment: Mice receiving hydrodynamic injection of human DGAT2 plasmid via the tail vein (Example 8); settings: 3 mg/kg subcutaneous single dose day 0; BALB/c mice, liver DGAT2 mRNA
Procedure: as §1, §2
Experimental method: The in-vivo experimental designs for the hydrodynamic injection of DGAT2 plasmid DNA, the administration and the sample collection method were shown in the table below.
Treatment with compound: The day of administration to mice was defined as day 0, the day before it was day -1, the day after it was day 1, and so on. On day 0, the mice were injected subcutaneously with 5 mL/kg of the solvent or the test compound,
Hydrodynamic injection of DGAT2 plasmid DNA solution into mice via tail vein: On day 14, the plasmid DNA was prepared with normal saline before injection, and stored at 4°C until use. […]
as §3, with “Quantitative PCR detection of DGAT2 gene expression in mouse liver: RNA in” for “RNA in”

DGAT2 = experiment: Inhibitory activity on the target gene DGAT2 in mice (Example 6, liver mRNA RT-PCR); settings: 3 mg/kg SC, day 0, once; C57BL/6 mice, liver mRNA day 7
Description: Animals: Male C57BL/6 mice, 6 weeks old, without particular pathogens. Before the experiment, the animals were allowed to acclimate to the environment for 7 days.
Solvent: phosphate buffer (PBS).
In-vivo experiment: The in-vivo experimental designs for the animal administration and the sample collection method were shown in the table below.
Definition of days of experiment: The day of first administration to mice was defined as day 0, the day before it was day -1, the day after it was day 1, and so on.
All mice were given a single dose of PBS, the control compound or the test compound by SC on day 0. On day 7, blood was taken from the submandibular vein plexus mice, and the plasma was collected. Then the mice were euthanized. Blood was taken from the heart for later use. The liver was collected for analysis of target mRNA level in the liver.
Sample detection and analysis: RT-PCR was used to quantitatively detect the level of target mRNA in liver tissue.
as §4, with “(GAPDH)” for “(Neo)”, “group. […]” for “group.”
Data analysis: The data are expressed as the average of each group of mouse samples ± standard error. […]

Substance: dS316: sense (invAb)*gaagaaguUfCfCfagaaauacaa[L96]; anti-sense Vpu*Uf*g*UfaUfuucugGfaAfcUfuCfuUf* c
- Average inhibition rate, % (Day 15 after administration) (human DGAT2 [1]): 66%

Substance: dS306: sense [NAG37](invAb)*uguggguuAfUfUfuaaaagaaau*(invAb ); anti-sense a*Uf*u*UfcUfuuuaaAfuAfaCfcCfaCf*a
- Average inhibition rate, % Day 1 after HDI (day 5 after administration) (hDGAT2): 96.72%

Substance: dS303: sense (invAb)*uguacauaUfUfCfugcacugauu*(invAb)[L96]; anti-sense a* Af*u*CfaGfugcagAfaUfaUfgUfaCf*a
- Average inhibition rate, % Day 1 after HDI (day 5 after administration) (hDGAT2): 85.53%

Substance: dS302: sense (invAb)*acaccauaGfAfCfuauuugcuuu*(invAb)[L96]; anti-sense a* Af*a*GfcAfaauagUfcUfaUfgGfuGf*u
- Average inhibition rate, % (Day 15 after administration) (human DGAT2 [2]): 70.4%
- Average inhibition rate, % Day 1 after HDI (day 5 after administration) (hDGAT2): 97.46%
- Average inhibition rate, % Day 1 after HDI (day 15 after administration) (hDGAT2): 70.35%

Substance: dS301: sense (invAb)*gaagaaguUfCfCfagaaauacau*(invAb)[L96]; anti-sense a*Uf*g*UfaUfuucugGfaAfcUfuCfuUf*c
- Average inhibition rate, % (Day 15 after administration) (human DGAT2 [1]): 79%
- Average inhibition rate, % Day 1 after HDI (day 5 after administration) (hDGAT2): 91.68%
- Average inhibition rate, % Day 1 after HDI (day 15 after administration) (hDGAT2): 78.89%

Substance: dS307: sense (invAb)*ggugucugUfGfGfguuauuuaaa*(invAb)*[L96]; anti-sense Vpu*Uf*Uf*AfaauaaccCfaCfaGfacac*c
- Average inhibition rate, % Day 1 after HDI (day 15 after administration) (hDGAT2): 61.03%
- Average inhibition rate (%) (7 days) (DGAT2): 76%

Substance: dS304: sense (invAb)*cgcuacuuUfCfGfagacuacuuu*(invAb)[L96]; anti-sense a*Af*a*GfuAfgucucGfaAfaGfuAfgCf*g
- Average inhibition rate, % Day 1 after HDI (day 5 after administration) (hDGAT2): 66.33%

Substance: dS305: sense [NAG37](invAb)*uggguuauUfUfAfaaagaaauua*(invAb ); anti-sense u*Af*a*UfuUfcuuuuAfaAfuAfaCfcCf*a
- Average inhibition rate, % Day 1 after HDI (day 5 after administration) (hDGAT2): 95.59%

From patent EP4722365A1, “DOUBLE-STRANDED NUCLEOTIDE COMPOUND FOR METABOLIC DISEASES AND USE THEREOF” (Visirna Therapeutics (Suzhou) Co., Ltd., priority 2023, dated 2024)
